Experimental data reported in patent US20030044356A1, “Composition for nasal solution sprays having effective component of 1,2,3,9-tetrahydro-9-methyl-3-[(2-methyl-1H-imidazol-1-yl)methyl]-4H-carbazol-4-one)” (priority 2001, published 2003).
Like-named read-outs stand apart in the source and are kept apart here.

Assays:
[1] = Test for intranasal stability of active ingredient in nasal mucosa extract; settings: 37° C.; for Residual Concentration: 200 μg/mL added
Protocol: The fresh nasal mucosa excised from a rabbit (body weight 3.0 kg, New Zealand White female rabbit) was mounted to the Valia-Chien permeation system maintained at a constant temperature of 37° C. Each of the donor and receptor half-cells was filled with each 3.5 mL of saline, maintained at the constant temperature for 4 hours while stirring with a magnetic star-head bar, and then both extracts from the half-cells were combined and used as nasal mucosa extracts.
Ondansetron hydrochloride (200 μg/mL) was added to the obtained nasal mucosa extract, and then maintained at the temperature of 37° C. for 4 hours while gently shaking in order to confirm the physiochemical or enzymatic stability of ondansetron hydrochloride in a nasal cavity.

[2] = Comparison of bioavailability after nasal, intravenous and oral administration; assay type: in vivo, Sprague-Dawley male rats; settings: rats, 2 mg/kg; for Cmax / Tmax / AUC(0-t): male, Sprague-Dawley, rat, in vivo; for AUC(0-t): read-out: AUC0-2hr
Protocol: Twenty four (24) white rats (body weight 250-300 g, Sprague-Dawley male rats) were classified into 3 groups, namely 6, 11 and 7 rats. After nasal, intravenous and oral administration to each group of rats, the bioavailability according to the different routes of administration was compared.
Ondansetron hydrochloride was dissolved in the composition obtained in Formulation Example for nasal administration, in 0.9% saline for intravenous administration, and in purified water for oral administration as vehicles, respectively. Each 2 mg/kg of the solutions was administered thereby. The blood samples were collected at the predetermined time intervals to analyze the concentration of ondansetron hydrochloride in the plasma. The bioavailibity parameters were calculated from the assay results.

[3] = Permeation through excised rectal mucosa; assay type: in vitro ADME, rabbit
From the text: (§1) The results are shown in below Table 2.

[4] = assay type: in vitro ADME; settings: female, New Zealand White, rabbit
From the text: as §1

[5] = Permeation through excised duodenal mucosa; assay type: in vitro ADME, rabbit
From the text: as §1

[6] = Permeation through excised colonic mucosa; assay type: in vitro ADME, rabbit
From the text: as §1

[7] = inhaled or intranasal, nasal, in composition of Formulation Example

Structure (SMILES): Cc1nccn1CC1CCc2c(c3ccccc3n2C)C1=O.Cl.O.O (stereo not shown) [ondansetron hydrochloride, 1,2,3,9-tetrahydro-9-methyl-3-[(2-methyl-1H-imidazol-1-yl)methyl]-4H-carbazol-4-one hydrochloride dihydrate]
- Residual Concentration ([1]; 0 hr): 198.6 ± 1.3 µg/mL
- Residual Concentration ([1]; 1 hr): 199.0 ± 5.2 µg/mL
- Residual Concentration ([1]; 2 hr): 203.5 ± 3.0 µg/mL
- Residual Concentration ([1]; 3 hr): 196.9 ± 0.6 µg/mL
- Residual Concentration ([1]; 4 hr): 197.9 ± 9.6 µg/mL
- degradation in nasal mucosa extract ([1]; for 4 hours): not nearly degraded
- Cmax [2, 7]: 49.4 ± 18.7 ng/mL
- Tmax [2, 7]: 9.4 min
- AUC(0-t) [2, 7]: 53.2 ± 9.5 ng·h/mL
- AUC(0-t) ([2]; IV injection, in 0.9% saline): 51.1 ± 7.4 ng·h/mL
- Cmax ([2]; oral, in purified water): 29.7 ± 10.6 ng/mL
- Tmax ([2]; oral, in purified water): 11.8 min
- AUC(0-t) ([2]; oral, in purified water): 24.9 ± 12.6 ng·h/mL
- AUC0-2 hr in nasal administration higher than that in oral administration [2]: 2.1 times
- Cmax in oral administration lower than that in nasal administration [2]: 1.7 times
- Cumulative Amounts ([3]; 0.5 hr): 6.7 ± 0.1 μg/cm^2
- Cumulative Amounts ([3]; 1.0 hr): 9.6 ± 0.9 μg/cm^2
- Cumulative Amounts ([3]; 2.0 hr): 19.3 ± 5.8 μg/cm^2
- Cumulative Amounts ([3]; 4.0 hr): 54.1 ± 6.7 μg/cm^2
- Cumulative Amounts ([3]; 6.0 hr): 164.2 ± 9.2 μg/cm^2
- Cumulative Amounts ([4]; 0.333 hr): 68.2 ± 4.7 μg/cm^2
- permeation rate through nasal mucosa relative to colonic mucosa ([4]; 30 min): 7.5 times
- permeation rate through nasal mucosa relative to duodenal mucosa ([4]; 30 min): 7.2 times
- permeation rate through nasal mucosa relative to rectal mucosa ([4]; 30 min): 15.8 times
- Cumulative Amounts ([4]; 0.5 hr): 106.8 ± 14.9 μg/cm^2
- Cumulative Amounts ([4]; 1 hr): 180.5 ± 12.4 μg/cm^2
- Cumulative Amounts ([4]; 1.5 hr): 261.5 ± 15.1 μg/cm^2
- Cumulative Amounts ([4]; 2 hr): 289.3 ± 23.5 μg/cm^2
- Cumulative Amounts ([4]; 3 hr): 414.6 ± 22.6 μg/cm^2
- Cumulative Amounts ([4]; 4 hr): 559.4 ± 28.2 μg/cm^2
- Cumulative Amounts ([5]; 0.5 hr): 14.8 ± 3.5 μg/cm^2
- Cumulative Amounts ([5]; 1.0 hr): 35.4 ± 8.2 μg/cm^2
- Cumulative Amounts ([5]; 2.0 hr): 94.6 ± 23.9 μg/cm^2
- Cumulative Amounts ([5]; 4.0 hr): 280.1 ± 43.2 μg/cm^2
- Cumulative Amounts ([5]; 6.0 hr): 453.1 ± 36.3 μg/cm^2
- Cumulative Amounts ([6]; 0.5 hr): 14.3 ± 2.2 μg/cm^2
- Cumulative Amounts ([6]; 1.0 hr): 36.5 ± 7.8 μg/cm^2
- Cumulative Amounts ([6]; 2.0 hr): 112.1 ± 14.6 μg/cm^2
- Cumulative Amounts ([6]; 4.0 hr): 294.8 ± 14.7 μg/cm^2
- Cumulative Amounts ([6]; 6.0 hr): 438.9 ± 27.2 μg/cm^2
